Results taken from patent US20240067632A1, “WEE1 Degrading Compounds and Uses Thereof” (Bristol-Myers Squibb Company, priority 2022, published 2024).
pEC50: −log10 of the molar value. Where two headings read alike, the source gives them in different places.

Columns and labels:
[1] = tested on: MKN45 cells; assay: MKN45 cell proliferation assay (Cell-Titer-Glo, 120 h); type: cell-based; settings: for pEC50: Homo sapiens, MKN-45, 120 h, Cell-Titer-Glo, read-out: MKN45 Cell Prolif. 120 hr (EC50); for MKN45 Cell Prolif. 120 hr (Ymin-Obs): minimal percent of DMSO control observed in the concentrations tested
Procedure, shortened: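 Cells seeded at 400/well onto pre-printed 10-point half-log dilutions (top 1 or 10 uM, 0.1% DMSO final), in triplicate, and grown 120 h at 37 C. Viability by Cell-Titer-Glo luminescence, blank-subtracted and normalised to DMSO; EC50 from four-parameter logistic fit, with observed minimal % of control recorded as Ymin-obs.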

[2] = biological target: T1, WEE1 (Homo sapiens, UniProt P30291+Q96SW2); assay: WEE1-ePL degradation assay (LentiX-WEE1-ePL-GSPT1-ND cells, InCELL Hunter luminescence, 4 h); type: cell-based; settings: 293T-LentiX WEE1-ePL cells; for DC50: read-out: 293T-LentiX WEE1-ePL Degradation 4 hr (EC50)
T1 construct: C-terminal ePL-tagged (DiscoverX, Fremont, CA) full-length WEE1 expression construct; expressed in transfected cells; host or cells: LentiX-HEK293T (Invitrogen), lentiviral transduction; co-expressing GSPT1-GN (G576N, lacking the first 158 amino acids)
Procedure, shortened: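 Luminescent readout (InCELL Hunter, 30 min RT) of WEE1-ePL levels in transduced HEK293T cells after 4 h compound exposure at 37 °C. Dosing: 10 points, 3-fold steps, top 1 uM or 10 uM. EC50 from four-parameter logistic fit; Ymax set by DMSO.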

[3] = lower limit of the fit (0 = luciferase inhibitor, Ymax = DMSO control)
[4] = lower limit of the fit (Ymin=0 luciferase inhibitor, Ymax DMSO control)

Structure (SMILES) | pEC50 ([1]; growth inhibition) | MKN45 Cell Prolif. 120 hr (Ymin-Obs) [1] | 293T-LentiX WEE1-ePL Degradation 4 hr (Ymin) [2, 3] | pEC50 [1] | 293T-LentiX WEE1-ePL Degradation 4 hr (Ymin) [2, 4] | DC50 [2]
Cc1ccc2cc(CN3CC[C@H](Oc4ccc5c(c4)CN(C4CCC(=O)NC4=O)C5=O)[C@@H]3C)ccc2n1 (stereo partly drawn) [3-(5-{[(2S,3S)-2-methyl-1-[(2-methylquinolin-6-yl)methyl]pyrrolidin-3-yl]oxy}-1-oxo-2,3-dihydro-1H-isoindol-2-yl)piperidine-2,6-dione] | < 5.00 | 87.455 | 99.5 |  |  | 
O=C1CCC(N2Cc3cc(O[C@@H]4CN(Cc5ccc6nc([C@H]7CCOC7)ccc6c5)CC4(F)F)ccc3C2=O)C(=O)N1 (stereo partly drawn) [3-(5-{[(3R)-4,4-difluoro-1-({2-[(3R)-oxolan-3-yl]quinolin-6-yl}methyl)pyrrolidin-3-yl]oxy}-1-oxo-2,3-dihydro-1H-isoindol-2-yl)piperidine-2,6-dione] |  | 8.764 |  | 8.07 | 30.81 | 8.49 nM
O=C1CCC(N2Cc3cc(O[C@@H]4CN(Cc5ccc6nc([C@@H]7CCOC7)ccc6c5)CC4(F)F)ccc3C2=O)C(=O)N1 (stereo partly drawn) [3-(5-{[(3R)-4,4-difluoro-1-({2-[(3S)-oxolan-3-yl]quinolin-6-yl}methyl)pyrrolidin-3-yl]oxy}-1-oxo-2,3-dihydro-1H-isoindol-2-yl)piperidine-2,6-dione] |  | 9.159 |  | 8.00 | 30.61 | 8.39 nM
O=C1CCC(N2Cc3cc(O[C@@H]4CN(Cc5ccc6nc(C7CCOCC7)ccc6c5)CC4(F)F)ccc3C2=O)C(=O)N1 (stereo partly drawn) [3-(5-{[(3R)-4,4-difluoro-1-{[2-(oxan-4-yl)quinolin-6-yl]methyl}pyrrolidin-3-yl]oxy}-1-oxo-2,3-dihydro-1H-isoindol-2-yl)piperidine-2,6-dione] | 7.67 | 10.78 | 27.9 |  |  | 39.1 nM
O=C1CCC(N2Cc3cc(O[C@@H]4CN(Cc5ccc6nc([C@H]7CCOC7)ccc6c5)C[C@H]4F)ccc3C2=O)C(=O)N1 (stereo partly drawn) [3-(5-{[(3R,4R)-4-fluoro-1-({2-[(3R)-oxolan-3-yl]quinolin-6-yl}methyl)pyrrolidin-3-yl]oxy}-1-oxo-2,3-dihydro-1H-isoindol-2-yl)piperidine-2,6-dione] |  | 20.39 |  | 7.73 | 34.71 | 8.43 nM
O=C1CCC(N2Cc3cc(O[C@@H]4CN(Cc5ccc6nc([C@@H]7CCOC7)ccc6c5)C[C@H]4F)ccc3C2=O)C(=O)N1 (stereo partly drawn) [3-(5-{[(3R,4R)-4-fluoro-1-({2-[(3S)-oxolan-3-yl]quinolin-6-yl}methyl)pyrrolidin-3-yl]oxy}-1-oxo-2,3-dihydro-1H-isoindol-2-yl)piperidine-2,6-dione] | 7.54 | 20.1 | 29.32 |  |  | 9.69 nM
O=C1CCC(N2Cc3cc(O[C@@H]4CN(Cc5ccc6nc(C7CCOCC7)ccc6c5)C[C@H]4F)ccc3C2=O)C(=O)N1 (stereo partly drawn) [3-(5-{[(3R,4R)-4-fluoro-1-{[2-(oxan-4-yl)quinolin-6-yl]methyl}pyrrolidin-3-yl]oxy}-1-oxo-2,3-dihydro-1H-isoindol-2-yl)piperidine-2,6-dione] | 7.54 | 30.89 | 36.81 |  |  | 14.6 nM
CO[C@@H]1CN(Cc2ccc3nc(C4CCOCC4)ccc3c2)C[C@H]1Oc1ccc2c(c1)CN(C1CCC(=O)NC1=O)C2=O (stereo partly drawn) [3-(5-{[(3R,4R)-4-methoxy-1-{[2-(oxan-4-yl)quinolin-6-yl]methyl}pyrrolidin-3-yl]oxy}-1-oxo-2,3-dihydro-1H-isoindol-2-yl)piperidine-2,6-dione] | 7.77 | 22.78 | 37.67 |  |  | 11.7 nM
O=C1CCC(N2Cc3cc(O[C@@H]4CN(Cc5ccc6nc([C@H]7CCOC7)ccc6c5)C[C@@H]4F)ccc3C2=O)C(=O)N1 (stereo partly drawn) [3-(5-{[(3R,4S)-4-fluoro-1-({2-[(3R)-oxolan-3-yl]quinolin-6-yl}methyl)pyrrolidin-3-yl]oxy}-1-oxo-2,3-dihydro-1H-isoindol-2-yl)piperidine-2,6-dione] |  | 13.2 |  | 8.30 | 30.72 | 3.84 nM
O=C1CCC(N2Cc3cc(O[C@@H]4CN(Cc5ccc6nc([C@@H]7CCOC7)ccc6c5)C[C@@H]4F)ccc3C2=O)C(=O)N1 (stereo partly drawn) [3-(5-{[(3R,4S)-4-fluoro-1-({2-[(3S)-oxolan-3-yl]quinolin-6-yl}methyl)pyrrolidin-3-yl]oxy}-1-oxo-2,3-dihydro-1H-isoindol-2-yl)piperidine-2,6-dione] |  | 10.88 |  | 8.03 | 33.6 | 5.69 nM
O=C1CCC(N2Cc3cc(O[C@@H]4CN(Cc5ccc6nc(C7CCOCC7)ccc6c5)C[C@@H]4F)ccc3C2=O)C(=O)N1 (stereo partly drawn) [3-(5-{[(3R,4S)-4-fluoro-1-{[2-(oxan-4-yl)quinolin-6-yl]methyl}pyrrolidin-3-yl]oxy}-1-oxo-2,3-dihydro-1H-isoindol-2-yl)piperidine-2,6-dione] | 8.15 | 8.923 | 36 |  |  | 13.2 nM
CNC1(c2ccc3cc(CN4CC[C@H](Oc5ccc6c(c5)CN(C5CCC(=O)NC5=O)C6=O)C4)ccc3n2)COC1 (stereo partly drawn) [3-(5-{[(3S)-1-({2-[3-(methylamino)oxetan-3-yl]quinolin-6-yl}methyl)pyrrolidin-3-yl]oxy}-1-oxo-2,3-dihydro-1H-isoindol-2-yl)piperidine-2,6-dione] | 7.70 | 9.16 | 36 |  |  | 37.6 nM
CN(C)C1CCN(c2ccc3cc(CN4CC[C@H](Oc5ccc6c(c5)CN(C5CCC(=O)NC5=O)C6=O)C4)ccc3n2)CC1 (stereo partly drawn) [3-(5-{[(3S)-1-({2-[4-(dimethylamino)piperidin-1-yl]quinolin-6-yl}methyl)pyrrolidin-3-yl]oxy}-1-oxo-2,3-dihydro-1H-isoindol-2-yl)piperidine-2,6-dione] |  | 15.14 |  | 7.71 | 32.07 | 26.2 nM
CNC1CCN(c2ccc3cc(CN4CC[C@H](Oc5ccc6c(c5)CN(C5CCC(=O)NC5=O)C6=O)C4)ccc3n2)CC1 (stereo partly drawn) [3-(5-{[(3S)-1-({2-[4-(methylamino)piperidin-1-yl]quinolin-6-yl}methyl)pyrrolidin-3-yl]oxy}-1-oxo-2,3-dihydro-1H-isoindol-2-yl)piperidine-2,6-dione] |  | 25.09 |  | 7.07 | 38.12 | 64.4 nM
COC[C@@H]1CCCC[C@H]1c1ccc2cc(CN3CC[C@H](Oc4ccc5c(c4)CN(C4CCC(=O)NC4=O)C5=O)C3)ccc2n1 (stereo partly drawn) [3-(5-{[(3S)-1-({2-[(1R,2R)-2-(methoxymethyl)cyclohexyl]quinolin-6-yl}methyl)pyrrolidin-3-yl]oxy}-1-oxo-2,3-dihydro-1H-isoindol-2-yl)piperidine-2,6-dione] |  | 12.91 |  | 8.60 | 20.92 | 3.65 nM
CO[C@H]1CCCC[C@@H]1c1ccc2cc(CN3CC[C@H](Oc4ccc5c(c4)CN(C4CCC(=O)NC4=O)C5=O)C3)ccc2n1 (stereo partly drawn) [3-(5-{[(3S)-1-({2-[(1R,2S)-2-methoxycyclohexyl]quinolin-6-yl}methyl)pyrrolidin-3-yl]oxy}-1-oxo-2,3-dihydro-1H-isoindol-2-yl)piperidine-2,6-dione] |  | 23.82 |  | 8.12 | 25.39 | 4.52 nM
CO[C@H]1CCC[C@@H]1c1ccc2cc(CN3CC[C@H](Oc4ccc5c(c4)CN(C4CCC(=O)NC4=O)C5=O)C3)ccc2n1 (stereo partly drawn) [3-(5-{[(3S)-1-({2-[(1R,2S)-2-methoxycyclopentyl]quinolin-6-yl}methyl)pyrrolidin-3-yl]oxy}-1-oxo-2,3-dihydro-1H-isoindol-2-yl)piperidine-2,6-dione] |  | 8.858 |  | 8.26 | 30.79 | 4.34 nM
COC[C@@H]1CC[C@@H](c2ccc3cc(CN4CC[C@H](Oc5ccc6c(c5)CN(C5CCC(=O)NC5=O)C6=O)C4)ccc3n2)C1 (stereo partly drawn) [3-(5-{[(3S)-1-({2-[(1R,3R)-3-(methoxymethyl)cyclopentyl]quinolin-6-yl}methyl)pyrrolidin-3-yl]oxy}-1-oxo-2,3-dihydro-1H-isoindol-2-yl)piperidine-2,6-dione] |  | 8.79 |  | 8.52 | 34.2 | 3.01 nM
O=C1CCC(N2Cc3cc(O[C@H]4CCN(Cc5ccc6nc([C@@H]7CCC[C@@H](O)C7)ccc6c5)C4)ccc3C2=O)C(=O)N1 (stereo partly drawn) [3-(5-{[(3S)-1-({2-[(1R,3R)-3-hydroxycyclohexyl]quinolin-6-yl}methyl)pyrrolidin-3-yl]oxy}-1-oxo-2,3-dihydro-1H-isoindol-2-yl)piperidine-2,6-dione] | 8.93 | 8.405 | 31 |  |  | 3.18 nM
